Source: PubChem BioAssay (NCI)
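Each compound was tested at five concentrations against cells in 96-well plates for 48 hours. TGI marks complete inhibition of growth.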

Columns and labels:
Assay in all cases: NCI-60 cell line screen, 48 h
ACHN renal = system: ACHN renal
CAKI-1 renal = system: CAKI-1 renal
CCRF-CEM leukemia = system: CCRF-CEM leukemia
COLO 205 colon = system: COLO 205 colon
DMS 273 small cell lung = system: DMS 273 small cell lung
EKVX NSCLC = system: EKVX NSCLC
HCC-2998 colon = system: HCC-2998 colon
HCT-116 colon = system: HCT-116 colon
HCT-15 colon = system: HCT-15 colon
HL-60(TB) leukemia = system: HL-60(TB) leukemia
HOP-62 NSCLC = system: HOP-62 NSCLC
HOP-92 NSCLC = system: HOP-92 NSCLC
IGROV1 ovarian = system: IGROV1 ovarian
K-562 leukemia = system: K-562 leukemia
KM12 colon = system: KM12 colon
LOX IMVI melanoma = system: LOX IMVI melanoma
LXFL 529 NSCLC = system: LXFL 529 NSCLC
M14 melanoma = system: M14 melanoma
M19-MEL melanoma = system: M19-MEL melanoma
MALME-3M melanoma = system: MALME-3M melanoma
MOLT-4 leukemia = system: MOLT-4 leukemia
NCI-H522 lung = system: NCI-H522 lung
OVCAR-3 ovarian = system: OVCAR-3 ovarian
OVCAR-4 ovarian = system: OVCAR-4 ovarian
RPMI-8226 leukemia = system: RPMI-8226 leukemia
SF-268 CNS = system: SF-268 CNS
SK-MEL-2 melanoma = system: SK-MEL-2 melanoma
SK-OV-3 ovarian = system: SK-OV-3 ovarian
SN12C renal = system: SN12C renal
SNB-75 CNS = system: SNB-75 CNS
SR leukemia = system: SR leukemia
SW-620 colon = system: SW-620 colon
XF 498 CNS = system: XF 498 CNS
786-0 renal = system: 786-0 renal
A498 renal = system: A498 renal
A549 NSCLC = system: A549 NSCLC
DLD-1 colon = system: DLD-1 colon
DMS 114 small cell lung = system: DMS 114 small cell lung
HOP-18 NSCLC = system: HOP-18 NSCLC
HT29 colon = system: HT29 colon
KM20L2 colon = system: KM20L2 colon
NCI-H23 lung = system: NCI-H23 lung
NCI-H460 lung = system: NCI-H460 lung
OVCAR-5 ovarian = system: OVCAR-5 ovarian
OVCAR-8 ovarian = system: OVCAR-8 ovarian
RXF 393 renal = system: RXF 393 renal
SF-295 CNS = system: SF-295 CNS
SF-539 CNS = system: SF-539 CNS
SK-MEL-28 melanoma = system: SK-MEL-28 melanoma
SK-MEL-5 melanoma = system: SK-MEL-5 melanoma
SNB-19 CNS = system: SNB-19 CNS
SNB-78 CNS = system: SNB-78 CNS
TK-10 renal = system: TK-10 renal
U251 CNS = system: U251 CNS
UACC-257 melanoma = system: UACC-257 melanoma
UACC-62 melanoma = system: UACC-62 melanoma
UO-31 renal = system: UO-31 renal

SMILES: O=c1n(CCCCn2c(=O)n(CC3CS3)c3ccccc32)c2ccccc2n1CC1CS1 (stereo unspecified)
- TGI (ACHN renal): 77.6 µM
- TGI (CAKI-1 renal): 35.5 µM
- TGI (CCRF-CEM leukemia): 81.4 µM
- TGI (COLO 205 colon): 35.6 µM
- TGI (DMS 273 small cell lung): 42.7 µM
- TGI (EKVX NSCLC): 76.2 µM
- TGI (HCC-2998 colon): 35.9 µM
- TGI (HCT-116 colon): 39.7 µM
- TGI (HCT-15 colon): 33.2 µM
- TGI (HL-60(TB) leukemia): 6.34 µM
- TGI (HOP-62 NSCLC): 43.9 µM
- TGI (HOP-92 NSCLC): 86.5 µM
- TGI (IGROV1 ovarian): 32 µM
- TGI (K-562 leukemia): 37.5 µM
- TGI (KM12 colon): 24.2 µM
- TGI (LOX IMVI melanoma): 14.4 µM
- TGI (LXFL 529 NSCLC): 33.1 µM
- TGI (M14 melanoma): 23.2 µM
- TGI (M19-MEL melanoma): 45.8 µM
- TGI (MALME-3M melanoma): 22.8 µM
- TGI (MOLT-4 leukemia): 5.82 µM
- TGI (NCI-H522 lung): 31.6 µM
- TGI (OVCAR-3 ovarian): 29.4 µM
- TGI (OVCAR-4 ovarian): 34 µM
- TGI (RPMI-8226 leukemia): 30.3 µM
- TGI (SF-268 CNS): > 100 µM
- TGI (SK-MEL-2 melanoma): 29 µM
- TGI (SK-OV-3 ovarian): > 100 µM
- TGI (SN12C renal): 36.5 µM
- TGI (SNB-75 CNS): 61.4 µM
- TGI (SR leukemia): 21.5 µM
- TGI (SW-620 colon): 39.8 µM
- TGI (XF 498 CNS): 20.6 µM

SMILES: CCOC(=O)NC(=O)c1cn(CCN2CCN(C(=O)NCCCCCCNC(=O)N3CCN(CCn4cc(C(=O)NC(=O)OCC)c(=O)n(CCN(CC)CC)c4=O)CC3)CC2)c(=O)n(CCC(CC)CC)c1=O
- TGI (786-0 renal): > 100 µM
- TGI (A498 renal): > 100 µM
- TGI (A549 NSCLC): > 100 µM
- TGI (ACHN renal): > 100 µM
- TGI (COLO 205 colon): > 100 µM
- TGI (DLD-1 colon): > 100 µM
- TGI (DMS 114 small cell lung): > 100 µM
- TGI (DMS 273 small cell lung): > 100 µM
- TGI (EKVX NSCLC): > 100 µM
- TGI (HCC-2998 colon): > 100 µM
- TGI (HCT-116 colon): > 100 µM
- TGI (HCT-15 colon): > 100 µM
- TGI (HL-60(TB) leukemia): > 100 µM
- TGI (HOP-18 NSCLC): > 100 µM
- TGI (HOP-62 NSCLC): > 100 µM
- TGI (HOP-92 NSCLC): > 100 µM
- TGI (HT29 colon): > 100 µM
- TGI (IGROV1 ovarian): > 100 µM
- TGI (K-562 leukemia): > 100 µM
- TGI (KM12 colon): > 100 µM
- TGI (KM20L2 colon): > 100 µM
- TGI (LOX IMVI melanoma): > 100 µM
- TGI (LXFL 529 NSCLC): > 100 µM
- TGI (M14 melanoma): > 100 µM
- TGI (M19-MEL melanoma): > 100 µM
- TGI (MALME-3M melanoma): > 100 µM
- TGI (NCI-H23 lung): > 100 µM
- TGI (NCI-H460 lung): > 100 µM
- TGI (NCI-H522 lung): > 100 µM
- TGI (OVCAR-3 ovarian): > 100 µM
- TGI (OVCAR-4 ovarian): > 100 µM
- TGI (OVCAR-5 ovarian): > 100 µM
- TGI (OVCAR-8 ovarian): > 100 µM
- TGI (RPMI-8226 leukemia): > 100 µM
- TGI (RXF 393 renal): > 100 µM
- TGI (SF-268 CNS): > 100 µM
- TGI (SF-295 CNS): > 100 µM
- TGI (SF-539 CNS): > 100 µM
- TGI (SK-MEL-2 melanoma): > 100 µM
- TGI (SK-MEL-28 melanoma): > 100 µM
- TGI (SK-MEL-5 melanoma): > 100 µM
- TGI (SK-OV-3 ovarian): > 100 µM
- TGI (SN12C renal): > 100 µM
- TGI (SNB-19 CNS): > 100 µM
- TGI (SNB-75 CNS): > 100 µM
- TGI (SNB-78 CNS): > 100 µM
- TGI (SR leukemia): > 100 µM
- TGI (SW-620 colon): > 100 µM
- TGI (TK-10 renal): > 100 µM
- TGI (U251 CNS): > 100 µM
- TGI (UACC-257 melanoma): > 100 µM
- TGI (UACC-62 melanoma): > 100 µM
- TGI (UO-31 renal): > 100 µM
